Experimental findings from patent US11980633B2, “Method for treating cancer using a combination of DNA-damaging agents and DNA-PK inhibitors” (Vertex Pharmaceuticals Incorporated, priority 2016, dated 2024) are described below.

In this assay the test system is pKAP1 and pH2AX levels in MDA-MB-468 breast cancer cells. The assay is described as follows: pKAP1 and pH2AX immunoblot, doxorubicin pulse (wash-out) with Compound B-2 in MDA-MB-468 cells. As to conditions: 1 μM Compound B-2 + 500 nM doxorubicin pulse; beginning at 1 h doxorubicin exposure, harvested at 8 h. In kind it is cell-based, human. As for the experimental part:
Materials and Methods. The human cancer cell lines A549 (CCL-185), DU4475 (HTB-123), MDA-MB-436 (HTB-130), and MDA-MB-468 (HTB-132) were obtained from American Type Culture Collection (ATCC; Manassas, VA). A 10 mM stock solution of Compound B-1 or Compound B-2 was prepared in DMSO and stored at −20° C. Etoposide and doxorubicin were purchased from Sigma-Aldrich (St. Louis, MO).
The A549 human lung cancer cell line was purchased from ATCC and was cultured in DMEM supplemented with 10% fetal bovine serum, 1× non-essential amino acids and 1× Penicillin/Streptomycin (complete medium). Cells were maintained at a subconfluent state by passaging every 2-3 days. Human breast cancer cells lines DU4475, MDA-MB-436, and MDA-MB-468 were purchased from ATCC and cultured in DMEM supplemented with 10% fetal bovine serum, 1× Glutamax and Penicillin/Streptomycin. Cells were maintained at a subconfluent state by passaging every 2-3 days. […]
In order to determine the effect of a pulse of doxorubicin in combination with a DNA-PK inhibitor on pKAP1 and pH2AX levels, which would more closely simulate an in vivo administration of doxorubicin, MDA-MB-468 breast cancer cells were pre-incubated with 1 μM Compound B-2 for 15 min, followed by addition of 500 nM doxorubicin. […] Cells were harvested 8 h from initial doxorubicin exposure, and analyzed for levels of pKAP1 and pH2AX by immunoblotting. […]
(In general: Immunoblotting shows a protein as a band on a membrane.)

For the molecule `[2H]c1nc(C)nc([2H])c1-c1cc(NC[C@@H](C)c2cccc3c(C(=O)NC)ccnc23)ncn1` [Compound B-2], the “pKAP1 and pH2AX levels vs doxorubicin alone” value was “enhanced levels”.
